27 molecules from patent US9938269B2, “Inhibitor compounds of phosphodiesterase type 10A” (ABBVIE INC., priority 2011, dated 2018) can be followed below.

Series [1] has as its target T1, PDE10A (human) (Homo sapiens, UniProt Q9Y233).
T1 construct: purchased BPS Bioscience
The series is described as follows: Measurement of PDE activity (HTRF cAMP kit), human PDE10A. The class given is biochemical. As to conditions: PDE enzymatic reaction, substrate 20 nM for PDE10, 60 minutes at 29 C. A digest of the protocol:
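Recombinant human PDE10A (10–250 pM range across PDEs) with 20 nM cAMP substrate in 20 mM Tris-HCl pH 7.5, 10 mM MgCl2, 0.1% BSA, compound pre-mixed with enzyme. Ran 60 min at 29 °C. Remaining cAMP read by HTRF, converted to % of uninhibited activity, and IC50 fitted.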
For orientation: TR-FRET usually uses a lanthanide donor and a delayed reading to cut background.

Series [2] in a line: Determination of the microsomal half-life, rat liver microsomes. As to conditions: rat, liver microsomes, pH 7.4. (Liver microsomes are a subcellular fraction often used to study metabolism.)
Series [3] is described as follows: Determination of the microsomal half-life, human liver microsomes. As to conditions: for microsomal CLint at 0.5 μM: human, liver microsomes, pH 7.4.

Counter-ions that a name gives are not always drawn.

T1 sequence (Q9Y233 whole entry): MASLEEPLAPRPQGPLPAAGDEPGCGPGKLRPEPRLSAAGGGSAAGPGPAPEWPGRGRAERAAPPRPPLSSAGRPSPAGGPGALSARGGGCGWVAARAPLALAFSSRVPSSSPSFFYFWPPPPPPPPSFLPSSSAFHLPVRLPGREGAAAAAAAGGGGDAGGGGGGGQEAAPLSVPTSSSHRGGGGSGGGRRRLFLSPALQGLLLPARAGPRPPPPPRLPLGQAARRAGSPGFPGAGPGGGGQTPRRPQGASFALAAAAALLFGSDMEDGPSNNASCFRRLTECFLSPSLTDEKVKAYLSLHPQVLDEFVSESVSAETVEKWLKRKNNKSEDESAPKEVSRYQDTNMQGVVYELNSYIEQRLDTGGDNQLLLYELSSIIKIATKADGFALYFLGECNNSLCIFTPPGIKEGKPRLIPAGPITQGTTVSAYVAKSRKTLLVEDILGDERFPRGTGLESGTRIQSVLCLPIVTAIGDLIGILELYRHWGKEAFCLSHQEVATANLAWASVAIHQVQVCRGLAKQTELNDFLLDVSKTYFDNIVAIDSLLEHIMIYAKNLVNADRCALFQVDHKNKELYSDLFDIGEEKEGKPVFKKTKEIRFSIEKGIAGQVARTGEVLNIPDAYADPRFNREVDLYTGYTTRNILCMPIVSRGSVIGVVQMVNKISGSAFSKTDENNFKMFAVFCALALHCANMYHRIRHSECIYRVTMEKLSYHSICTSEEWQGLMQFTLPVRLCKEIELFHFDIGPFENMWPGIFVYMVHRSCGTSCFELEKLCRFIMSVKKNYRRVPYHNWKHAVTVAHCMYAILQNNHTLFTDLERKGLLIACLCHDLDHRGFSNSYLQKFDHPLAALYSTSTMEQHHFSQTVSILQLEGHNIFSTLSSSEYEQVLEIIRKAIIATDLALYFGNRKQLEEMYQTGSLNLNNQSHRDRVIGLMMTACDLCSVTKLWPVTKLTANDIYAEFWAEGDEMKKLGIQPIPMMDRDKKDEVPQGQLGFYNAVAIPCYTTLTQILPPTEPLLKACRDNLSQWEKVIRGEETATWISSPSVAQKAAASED

In general, IC50 refers to the concentration that inhibits the measured activity by half. The low end stands for inhibition by little substance, the high end for a need for much substance. Broadly, the microsomal CLint is the rate of metabolic loss divided by the concentration. A low value points to slow turnover. The molecule `NCc1ccc(-c2cccc3c2C(=O)N(CCc2ccc4ccccc4n2)C3)cc1` [Example 193, 7-(4-Aminomethyl-phenyl)-2-(2-quinolin-2-yl-ethyl)-2,3-dihydro-isoindol-1-one] showed an IC50 in series [1] of 100 to 200 nM. For the same molecule, the microsomal CLint at 0.5 μM in series [2] and in series [3] was less than 100 µL/min/mg throughout.
Take `COc1ccc(-c2cccnc2)c2c1CN(CCc1cn3ccccc3n1)C2=O` [Example 218, 2-(2-Imidazo[1,2-a]pyridin-2-yl-ethyl)-4-methoxy-7-pyridin-3-yl-2,3-dihydro-isoindol-1-one trifluoroacetate]: the IC50 in series [1] is less than 100 nM. The microsomal CLint at 0.5 μM in series [2] and in series [3] was less than 100 µL/min/mg each time.
`O=C1c2c(N3CCOCC3)ccnc2CN1CCc1cn2cc(F)ccc2n1` [compound 493, 6-[2-(6-Fluoroimidazo[1,2-a]pyridin-2-yl)ethyl]-4-morpholino-7H-pyrrolo[3,4-b]pyridin-5-one trifluoroacetate] gave an IC50 in series [1] of less than 100 nM. Also, the microsomal CLint at 0.5 μM in series [2] and in series [3] was less than 100 µL/min/mg in each case.
For `Cn1c(CCN2Cc3nccc(-c4ccncc4)c3C2=O)nc2ccccc21` [Example 367, 6-[2-(1-Methyl-1H-benzoimidazol-2-yl)-ethyl]-4-pyridin-4-yl-6,7-dihydro-pyrrolo[3,4-b]pyridin-5-one], the IC50 in series [1] is less than 100 nM. The microsomal CLint at 0.5 μM in series [2] and in series [3] was less than 100 µL/min/mg throughout.
`O=C1c2c(N3CCOCC3)ccnc2CN1CCc1cn2ccsc2n1` [compound 425, 6-(2-Imidazo[2,1-b]thiazol-6-ylethyl)-4-morpholino-7H-pyrrolo[3,4-b]pyridin-5-one] showed an IC50 in series [1] of less than 100 nM. In series [2], this molecule showed a microsomal CLint at 0.5 μM of less than 100 µL/min/mg. Further, the “Human mCl (mikrosomal clearance)” value in series [3] (human liver microsomes, 0.5 μM test substance, 0.25 mg microsomal protein, pH 7.4, 37° C., NADPH) is recorded as “◯”.
With `O=C1c2c(OC3COC3)ccnc2CN1CCc1ccc2ccccc2n1` [compound 447, 4-(oxetan-3-yloxy)-6-[2-(2-quinolyl)ethyl]-7H-pyrrolo[3,4-b]pyridin-5-one], the IC50 in series [1] is less than 100 nM. Moreover, the intrinsic clearance (microsomal CLint) at 0.5 μM in series [2] and in series [3] was 100 to 220 µL/min/mg each time.
In turn, `Cc1occc1-c1ccnc2c1C(=O)N(CCc1cn3ccccc3n1)C2` [compound 524, 6-(2-Imidazo[1,2-a]pyridin-2-ylethyl)-4-(2-methyl-3-furyl)-7H-pyrrolo[3,4-b]pyridin-5-one] gave an IC50 in series [1] of 100 to 200 nM. The microsomal CLint at 0.5 μM in series [2] is more than 220 µL/min/mg; in series [3] it was 100 to 220 µL/min/mg.
Turning to `O=C1c2c(-c3ccncc3)ccnc2CN1CCc1ccc2ccccc2n1` [Example 3, 4-Pyridin-4-yl-6-(2-quinolin-2-yl-ethyl)-6,7-dihydro-pyrrolo[3,4-b]pyridin-5-one], the IC50 in series [1] was less than 100 nM. The microsomal CLint at 0.5 μM in series [2] was 100 to 220 µL/min/mg; in series [3], less than 100 µL/min/mg.
Taken in the same sequence, the figures for `O=C1c2cccc(-c3cc[nH]n3)c2CN1CCc1nc2ccccc2s1` [compound 428, 2-[2-(1,3-Benzothiazol-2-yl)ethyl]-4-(1H-pyrazol-3-yl)isoindolin-1-one] were less than 100 nM, more than 220 µL/min/mg and 100 to 220 µL/min/mg.
Taken in the same sequence, the figures for `O=C1c2c(cccc2N2CCCOCC2)CN1CCc1ccc2ccccc2n1` [Example 110, 7-[1,4]Oxazepan-4-yl-2-(2-quinolin-2-yl-ethyl)-2,3-dihydro-isoindol-1-one hydrochloride] were less than 100 nM, 100 to 220 µL/min/mg and more than 220 µL/min/mg.
Turning to `O=C1c2c(cccc2-c2ccncc2)CN1CCc1nc2ccccn2n1` [Example 230, 7-Pyridin-4-yl-2-(2-[1,2,4]triazolo[1,5-a]pyridin-2-yl-ethyl)-2,3-dihydro-isoindol-1-one], the IC50 in series [1] fell in the range of 200 to 500 nM. Besides, the microsomal CLint at 0.5 μM in series [2] and in series [3] was less than 100 µL/min/mg each time.
In series [1], `O=C1c2c(cccc2NC2CNC2)CN1CCc1ccc2ccccc2n1` [Example 145, 7-(Azetidin-3-ylamino)-2-(2-quinolin-2-yl-ethyl)-2,3-dihydro-isoindol-1-one] displayed a concentration for half-maximal inhibition (IC50) of 200 to 500 nM. For the same molecule, the intrinsic clearance (microsomal CLint) at 0.5 μM in series [2] and in series [3] was less than 100 µL/min/mg in each case.
In series [1], `CCc1ccn2cc(CCN3Cc4nccc(-c5ccncc5)c4C3=O)nc2c1` [compound 552, 6-[2-(7-Ethylimidazo[1,2-a]pyridin-2-yl)ethyl]-4-(4-pyridyl)-7H-pyrrolo[3,4-b]pyridin-5-one] showed an IC50 of less than 100 nM. The results for the microsomal CLint at 0.5 μM in series [2] and in series [3] were 100 to 220 µL/min/mg and less than 100 µL/min/mg, respectively.
For `O=C1c2c(N3CCC(C(F)F)C3)ccnc2CN1CCc1cn2ccccc2n1` (stereo not drawn) [compound 386, 4-[3-(Difluoromethyl)pyrrolidin-1-yl]-6-(2-imidazo[1,2-a]pyridin-2-ylethyl)-7H-pyrrolo[3,4-b]pyridin-5-one], in that order: less than 100 nM, 100 to 220 µL/min/mg and less than 100 µL/min/mg.
Taken in the same sequence, the figures for `Cc1cccnc1CCN1Cc2nccc(-c3ccncc3)c2C1=O` [compound 409, 6-[2-(3-Methyl-2-pyridyl)ethyl]-4-(4-pyridyl)-7H-pyrrolo[3,4-b]pyridin-5-one] were 200 to 500 nM, less than 100 µL/min/mg and less than 100 µL/min/mg.
For `Cn1c(CCN2Cc3cccc(N4CCOCC4)c3C2=O)nc2cc(F)ccc21` [Example 262, 2-[2-(5-Fluoro-1-methyl-1H-benzoimidazol-2-yl)-ethyl]-7-morpholin-4-yl-2,3-dihydro-isoindol-1-one], in that order: less than 100 nM, less than 100 µL/min/mg and 100 to 220 µL/min/mg.
Turning to `Cn1c(CCN2Cc3cccc(-c4cccnc4)c3C2=O)nc2ccccc21` [Example 196, 2-[2-(1-Methyl-1H-benzoimidazol-2-yl)-ethyl]-7-pyridin-3-yl-2,3-dihydro-isoindol-1-one], the IC50 in series [1] is less than 100 nM. Besides, the results for the microsomal CLint at 0.5 μM in series [2] and in series [3] were less than 100 µL/min/mg and more than 220 µL/min/mg, respectively.
Taken in the same sequence, the figures for `O=C1c2c(N3CC4COCC4C3)ccnc2CN1CCc1nc2ccccc2s1` (stereo not drawn) [compound 426, 4-(1,3,3a,4,6,6a-Hexahydrofuro[3,4-c]pyrrol-5-yl)-6-[2-(1,3-benzothiazol-2-yl)ethyl]-7H-pyrrolo[3,4-b]pyridin-5-one] were less than 100 nM, less than 100 µL/min/mg and 100 to 220 µL/min/mg.
Taken in the same sequence, the figures for `O=C1c2nccc(-c3ccncc3)c2CN1CCc1ccc2ccccc2n1` [compound 451, 4-Pyridin-4-yl-6-(2-quinolin-2-yl-ethyl)-5,6-dihydro-pyrrolo[3,4-b]pyridin-7-one] were less than 100 nM, 100 to 220 µL/min/mg and less than 100 µL/min/mg.
Taken in the same sequence, the figures for `O=C1c2c(-c3cccnc3)ccc(F)c2CN1CCc1cn2ccccc2n1` [Example 378, 4-Fluoro-2-(2-imidazo[1,2-a]pyridin-2-yl-ethyl)-7-pyridin-3-yl-2,3-dihydro-isoindol-1-one] were less than 100 nM, less than 100 µL/min/mg and 100 to 220 µL/min/mg.
In the case of `O=C1c2c(cccc2-c2ccc(C(F)(F)F)nc2)CN1CCc1ccc2ccccc2n1` [Example 98, 2-(2-Quinolin-2-yl-ethyl)-7-(6-trifluoromethyl-pyridin-3-yl)-2,3-dihydro-isoindol-1-one], the IC50 in series [1] fell in the range of 200 to 500 nM. In addition, the microsomal CLint at 0.5 μM in series [2] is less than 100 µL/min/mg; in series [3], 100 to 220 µL/min/mg.
For `CN(C)CCOc1ccc(-c2ccncc2)c2c1CN(CCc1ccc3ccccc3n1)C2=O` [compound 529, 4-(2-Dimethylamino-ethoxy)-7-pyridin-4-yl-2-(2-quinolin-2-yl-ethyl)-2,3-dihydro-isoindol-1-one], in that order: less than 100 nM, less than 100 µL/min/mg and less than 100 µL/min/mg.
Taken in the same sequence, the figures for `O=C1c2c(-c3cncnc3)ccnc2CN1CCc1cn2ccccc2n1` [Example 256, 6-(2-Imidazo[1,2-a]pyridin-2-yl-ethyl)-4-pyrimidin-5-yl-6,7-dihydro-pyrrolo[3,4-b]pyridin-5-one] were less than 100 nM, less than 100 µL/min/mg and less than 100 µL/min/mg.
For `O=C1c2c(cccc2-c2cccnc2)CN1CCc1nc2ncccc2[nH]1` [Example 253, 2-[2-(1H-Imidazo[4,5-b]pyridin-2-yl)-ethyl]-7-pyridin-3-yl-2,3-dihydro-isoindol-1-one], in that order: 200 to 500 nM, less than 100 µL/min/mg and less than 100 µL/min/mg.
In turn, `Cc1cccc(CCN2Cc3nccc(N4CCOCC4)c3C2=O)n1` [compound 466, 6-[2-(6-Methyl-2-pyridyl)ethyl]-4-morpholino-7H-pyrrolo[3,4-b]pyridin-5-one] yielded an IC50 in series [1] of 100 to 200 nM. Also, the microsomal CLint at 0.5 μM is more than 220 µL/min/mg in series [2] and less than 100 µL/min/mg in series [3].
For `Cc1ccc2c(c1)nc(CCN1Cc3nccc(-c4ccnn4C)c3C1=O)n2C` [compound 540, 6-[2-(1,5-Dimethylbenzimidazol-2-yl)ethyl]-4-(2-methylpyrazol-3-yl)-7H-pyrrolo[3,4-b]pyridin-5-one], in that order: less than 100 nM, less than 100 µL/min/mg and less than 100 µL/min/mg.
In turn, `COc1cccc(CCN2Cc3nccc(N4CCOCC4)c3C2=O)n1` [compound 483, 6-[2-(6-Methoxy-2-pyridyl)ethyl]-4-morpholino-7H-pyrrolo[3,4-b]pyridin-5-one] registered an IC50 in series [1] of less than 100 nM. For the same molecule, the microsomal CLint at 0.5 μM in series [2] and in series [3] was less than 100 µL/min/mg throughout.
